Measured values: patent US9643968B2, “Fused acridine derivative and pharmaceutical composition, preparation method and use thereof” (Peking University, priority 2014, dated 2017)

Legend:
[1] = tested on: HCT116 (human colon cancer cell); experiment: MTT in vitro cytotoxicity, HCT116; assay type: cell-based; settings: HCT-116, 72 hr incubation
Experimental: (§1) Materials and methods: MTT (3-[4,5-dimethylthiazol-2-yl]-diphenyl tetrazolium bromide) method was employed to determine the antiproliferative activity of all the compounds of the Examples and Contrasting Examples in vitro against selected cell lines, including HCT116 (human colon cancer cell), PC-3 (human prostate cancer), HepG2 (human hepatocellular carcinoma), SK-OV-3 (human ovarian adenocarcinoma), MCF-7 (human breast cancer), U87MG (human glioblastoma cell) cell lines.
(§2) Procedure: Human tumor cells of HCT116, PC-3, HepG2, SK-OV-3, MCF-7, and U87MG were in vitro cultured, and collected until the cells grow to the logarithmic phase. The cells were centrifuged for 5 minutes at 1000 rpm, and supernatant was discarded. Subsequently appropriate culture medium was added to suspend the precipitation, and the concentration of cells was adjusted to 3.5˜5.5×10^4/mL. the suspensions of cells were seeded in 96-well microplate at 100 μL per well, and incubated in incubator (37° C., 5% CO2) for 24 hr. The compound to test was added. For the control group, equivalent concentration of DMSO (final concentration 0.5%) was added. For each group, three copy wells were set. After incubated for 72 hr, 20 μL 5 mg/mL of MTT was added into each well, and placed at 37° C. for 3 hr. 150 μL of DMSO was added into each wells, and vibrated the shaker at 37° C. for 5 mins, then measured the absorbance (OD) value at 492 nm/620 nm. The IC50 values were calculated using Prism 5.0 software.

[2] = tested on: SK-OV-3 (human ovarian adenocarcinoma); experiment: MTT in vitro cytotoxicity, SK-OV-3; assay type: cell-based; settings: 72 hr incubation
Experimental: as §1, §2

[3] = tested on: HepG2 (human hepatocellular carcinoma); experiment: MTT in vitro cytotoxicity, HepG2; assay type: cell-based; settings: 72 hr incubation
Experimental: as §1, §2

[4] = tested on: PC-3 (human prostate cancer); experiment: MTT in vitro cytotoxicity, PC-3; assay type: cell-based; settings: 72 hr incubation, read-out: IC50 PC3
Experimental: as §1, §2

[5] = tested on: U87MG (human glioblastoma cell); experiment: MTT in vitro cytotoxicity, U87MG; assay type: cell-based; settings: U-87 MG, 72 hr incubation
Experimental: as §1, §2

tumor cells (U87MG) = experiment: Assay for inhibiting cancer cell clone formation (soft agar); assay type: cell-based, human; settings: concentration range from 0.020 to 0.090 μM, 10-14 days
Experimental: Materials and methods: The tested tumor cells (U87MG) in the logarithmic phase were digested with 0.25% trypsin then percussed gently to the single cell state, and counted the live cells. The cells density was adjusted to 1×10^6[…] with DMEM containing 20% fetal bovine serum, and then diluted gradiently according to the experiment requirement.
Two concentrations (1.2% and 0.7%) of low melting point agarose fluid were prepared with distilled water respectively. A mixture of 1.2% agarose fluid and 2×DMEM medium (contains 2× antibiotics and 20% calf serum) was prepared in 1:1 ratio, then transferred (3 mL) into 6 cm diameter flat dishes, cooled to solidification to furnish the bottom agar which was stored in a CO2 incubator. The cell suspension (0.2 mL) was added to a mixture of 0.7% agarose and 2×DMEM medium which was prepared in 1:1 ratio in sterile tubes, and thoroughly mixed before injection to the precoated dishes to form the double layer agar. After the upper agar being solidified, the dishes were incubated in 37° C. and 5% CO2 for 10-14 days, each experiment was performed in 3-6 times.
The number of clones was counted under an inverted microscope. The clone formation rate was calculated.

SMILES	IC50 [1]	IC50 [2]	IC50 [3]	IC50 [4]	IC50 [5]	inhibition of glioma cell clone formation (tumor cells (U87MG))
CN(C)CCN1C(=O)c2c3ccccc3nc3cccc1c23 [Compound 1a, 2-(2-(dimethylamino)ethyl)pyrrolo[2,3,4-kl]acridin-1-(2H)-one]	7410 nM	14800 nM	6350 nM	14500 nM	582 nM	–
O=C1c2c3ccccc3nc3cccc(c23)N1CCCN1CCOCC1 [Compound 1b, 2-(3-morpholinopropyl)pyrrolo[2,3,4-kl]acridin-1-(2H)-one]	1870 nM	8430 nM	2780 nM	3010 nM	1780 nM	–
O=C1c2c3ccccc3nc3cccc(c23)N1CCN1CCCCC1 [Compound 1f, 2-(2-(piperidin-1-yl)ethyl)pyrrolo[2,3,4-kl]acridin-1-(2H)-one]	1130 nM	3650 nM	2270 nM	3190 nM	3930 nM	–
O=C1c2c3ccccc3nc3cccc(c23)N1CCN1CCCC1 [Compound 1g, 2-(2-(pyrrolidin-1-yl)ethyl)pyrrolo[2,3,4-kl]acridin-1-(2H)-one]	946 nM	6520 nM	2160 nM	3990 nM	–	–
O=C1c2c3ccccc3nc3cccc(c23)N1CCCN1CCCC1 [Compound 1h, 2-(3-(pyrrolidin-1-yl)propyl)pyrrolo[2,3,4-kl]acridin-1-(2H)-one]	1800 nM	11900 nM	8150 nM	11900 nM	10200 nM	–
Cc1ccc2nc3cccc4c3c(c2c1)C(=O)N4CCN(C)C [Compound 2a, 2-(2-(dimethylamino)ethyl)-9-methylpyrrolo[2,3,4-kl]acridin-1-(2H)-one]	1050 nM	–	2820 nM	3520 nM	2050 nM	–
CN(C)CCN1C(=O)c2c3cc(Cl)ccc3nc3cccc1c23 [Compound 2b, 9-chloro-2-(2-(dimethylamino)ethyl)pyrrolo[2,3,4-kl]acridin-1-(2H)-one]	859 nM	–	1080 nM	1220 nM	1450 nM	significantly inhibited
CN(C)CCN1C(=O)c2c3cccc(F)c3nc3cccc1c23 [Compound 2d, 2-(2-(dimethylamino)ethyl)-7-fluoropyrrolo[2,3,4-kl]acridin-1-(2H)-one]	951 nM	–	1410 nM	1850 nM	1700 nM	significantly inhibited
CN(C)CCN1C(=O)c2c3ccccc3nc3c([N+](=O)[O-])ccc1c23 [Compound 2e]	1340 nM	–	1860 nM	998 nM	1740 nM	–
Cc1ccc2nc3cccc4c3c(c2c1)C(=O)N4CCCN(C)C [Compound 3a, 2-(3-(dimethylamino)propyl)-9-methylpyrrolo[2,3,4-kl]acridin-1-(2H)-one]	1380 nM	–	2850 nM	8210 nM	2190 nM	–
CN(C)CCCN1C(=O)c2c3cc(Cl)ccc3nc3cccc1c23 [Compound 3b, 9-chloro-2-(3-(dimethylamino)propyl)pyrrolo[2,3,4-kl]acridin-1-(2H)-one]	1320 nM	–	1470 nM	2330 nM	1580 nM	–
CN(C)CCCN1C(=O)c2c3cc(Cl)ccc3nc3cccc1c23.O=C(O)/C=C/C(=O)O [Compound 3b′, 9-chloro-2-(3-(dimethylamino)propyl)pyrrolo[2,3,4-kl]acridin-1-(2H)-one fumarate]	–	–	–	–	–	significantly inhibited
COc1ccc2nc3cccc4c3c(c2c1)C(=O)N4CCCN(C)C [Compound 3c, 2-(3-(dimethylamino)propyl)-9-methoxypyrrolo[2,3,4-kl]acridin-1-(2H)-one]	1110 nM	–	1830 nM	3470 nM	1850 nM	–
CN(C)CCCN1C(=O)c2c3cccc(F)c3nc3cccc1c23 [Compound 3d, 2-(3-(dimethylamino)propyl)-7-fluoropyrrolo[2,3,4-kl]acridin-1-(2H)-one]	1490 nM	–	2100 nM	4990 nM	2360 nM	–
Cc1ccc2nc3cccc4c3c(c2c1)C(=O)N4CCN1CCCCC1 [Compound 4a, 9-methyl-2-(2-(piperidin-1-yl)ethyl)pyrrolo[2,3,4-kl]acridin-1-(2H)-one]	1420 nM	–	2570 nM	4130 nM	1330 nM	–
O=C1c2c3cc(Cl)ccc3nc3cccc(c23)N1CCN1CCCCC1 [Compound 4b, 9-chloro-2-(2-(piperidin-1-yl)ethyl)pyrrolo[2,3,4-kl]acridin-1-(2H)-one]	1380 nM	–	2250 nM	2880 nM	1890 nM	–
COc1ccc2nc3cccc4c3c(c2c1)C(=O)N4CCN1CCCCC1 [Compound 4c, 9-methoxy-2-(2-(piperidin-1-yl)ethyl)pyrrolo[2,3,4-kl]acridin-1-(2H)-one]	284 nM	–	1500 nM	1400 nM	497 nM	–
O=C1c2c3cccc(F)c3nc3cccc(c23)N1CCN1CCCCC1 [Compound 4d, 7-fluoro-2-(2-(piperidin-1-yl)ethyl)pyrrolo[2,3,4-kl]acridin-1-(2H)-one]	1210 nM	–	3580 nM	4700 nM	1780 nM	–
Cc1ccc2nc3c(C)ccc4c3c(c2c1)C(=O)N4CCN(C)C [Compound 5a, 2-(2-(dimethylamino)ethyl)-5,9-dimethylpyrrolo[2,3,4-kl]-acridin-1-(2H)-one]	1060 nM	–	1940 nM	2900 nM	1480 nM	significantly inhibited
Cc1ccc2c3c(c4cc(Cl)ccc4nc13)C(=O)N2CCN(C)C [Compound 5b, 9-chloro-2-(2-(dimethylamino)ethyl)-5-methylpyrrolo[2,3,4-kl]-acridin-1-(2H)-one]	930 nM	–	1170 nM	2240 nM	1270 nM	significantly inhibited
COc1ccc2nc3c(C)ccc4c3c(c2c1)C(=O)N4CCN(C)C [Compound 5c, 2-(2-(dimethylamino)ethyl)-9-methoxy-5-methylpyrrolo[2,3,4-kl]-acridin-1-(2H)-one]	165 nM	–	232 nM	689 nM	269 nM	–
Cc1ccc2c3c(c4cccc(F)c4nc13)C(=O)N2CCN(C)C [Compound 5d, 2-(2-(dimethylamino)ethyl)-7-fluoro-5-methylpyrrolo[2,3,4-kl]-acridin-1-(2H)-one]	1000 nM	–	1720 nM	2510 nM	1420 nM	significantly inhibited
Cc1ccc2c3c(c4ccccc4nc13)C(=O)N2CCN(C)C [Compound 5e, 2-(2-(dimethylamino)ethyl)-5-methylpyrrolo[2,3,4-kl]-acridin-1-(2H)-one]	767 nM	–	1280 nM	1660 nM	959 nM	significantly inhibited
CCCCN1C(=O)c2c3ccccc3nc3cccc1c23 [Compound 6a, 2-butylpyrrolo[2,3,4-kl]acridin-1-(2H)-one, reference compound]	> 50000 nM	> 50000 nM	> 50000 nM	> 50000 nM	> 50000 nM	–
